Assays:
Assay in all cases: relative viability vs DMSO control (72 h) (fraction); higher = more viable cells
HS729 = system: HS729
How it was run: (§1)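 Densities for seeding sarcoma cell lines into 384-well plates were set to give 80–90% confluence. After 24 h, 2.5 µl of serially diluted compound from source plates of 10 mM to 0.0002 mM went in, and plates stayed 72 h at 37 °C in 5% CO2 with 0.1% DMSO vehicle and a 5 µM positive control. Percent growth from ATPLite readings, averaged over up to triplicate wells, served as relative viability, rescaled so 1 means full and 0 means none.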

SK-ES-1 = system: SK-ES-1
How it was run: as §1

A204 = system: A204
How it was run: as §1

SYO-1 = system: SYO-1
How it was run: as §1

RD = system: RD
How it was run: as §1

KHOS-NP = system: KHOS-NP
How it was run: as §1

SW684 = system: SW684
How it was run: as §1

G401 = system: G401
How it was run: as §1

VA-ES-BJ = system: VA-ES-BJ
How it was run: as §1

SW872 = system: SW872
How it was run: as §1

MES-SA = system: MES-SA
How it was run: as §1

SK-LMS-1 = system: SK-LMS-1
How it was run: as §1

CNC(=O)c1nnc(NC(=O)C2CC2)cc1Nc1cccc(-c2ncn(C)n2)c1OC
Settings	relative viability
A204, 0.00017 µM	1.1
A204, 0.00051 µM	1.09
A204, 0.00152 µM	1.08
A204, 0.00457 µM	1.06
A204, 0.01372 µM	1.06
A204, 0.04115 µM	1.06
A204, 0.1235 µM	1.07
A204, 0.3704 µM	1.09
A204, 1.111 µM	1.11
A204, 3.333 µM	1.01
A204, 10 µM	0.714
G401, 0.00017 µM	1
G401, 0.00051 µM	0.988
G401, 0.00152 µM	1.03
G401, 0.00457 µM	1.03
G401, 0.01372 µM	1.074
G401, 0.04115 µM	1.02
G401, 0.1235 µM	1.04
G401, 0.3704 µM	1.031
G401, 1.111 µM	1.013
G401, 3.333 µM	0.999
G401, 10 µM	0.906
HS729, 0.00017 µM	0.934
HS729, 0.00051 µM	0.925
HS729, 0.00152 µM	0.869
HS729, 0.00457 µM	0.885
HS729, 0.01372 µM	0.9
HS729, 0.04115 µM	0.931
HS729, 0.1235 µM	0.906
HS729, 0.3704 µM	0.8552
HS729, 1.111 µM	0.86
HS729, 3.333 µM	0.84
HS729, 10 µM	0.761
KHOS-NP, 0.00017 µM	1.07
KHOS-NP, 0.00051 µM	1.08
KHOS-NP, 0.00152 µM	1.063
KHOS-NP, 0.00457 µM	1.06
KHOS-NP, 0.01372 µM	1.07
KHOS-NP, 0.04115 µM	1.076
KHOS-NP, 0.1235 µM	1.08
KHOS-NP, 0.3704 µM	1.07
KHOS-NP, 1.111 µM	1.061
KHOS-NP, 3.333 µM	1.09
KHOS-NP, 10 µM	1.05
MES-SA, 0.00017 µM	0.926
MES-SA, 0.00051 µM	0.938
MES-SA, 0.00152 µM	0.926
MES-SA, 0.00457 µM	0.92
MES-SA, 0.01372 µM	0.943
MES-SA, 0.04115 µM	0.952
MES-SA, 0.1235 µM	0.944
MES-SA, 0.3704 µM	0.943
MES-SA, 1.111 µM	0.923
MES-SA, 3.333 µM	0.891
MES-SA, 10 µM	0.669
RD, 0.00017 µM	1.1
RD, 0.00051 µM	1.11
RD, 0.00152 µM	1.12
RD, 0.00457 µM	1.12
RD, 0.01372 µM	1.1
RD, 0.04115 µM	1.09
RD, 0.1235 µM	1.11
RD, 0.3704 µM	1.08
RD, 1.111 µM	1.1
RD, 3.333 µM	1.09
RD, 10 µM	0.994
SK-ES-1, 0.00017 µM	1.03
SK-ES-1, 0.00051 µM	1.03
SK-ES-1, 0.00152 µM	1.1
SK-ES-1, 0.00457 µM	1.03
SK-ES-1, 0.01372 µM	1.07
SK-ES-1, 0.04115 µM	1.04
SK-ES-1, 0.1235 µM	1.02
SK-ES-1, 0.3704 µM	1.04
SK-ES-1, 1.111 µM	0.968
SK-ES-1, 3.333 µM	0.891
SK-ES-1, 10 µM	0.517
SK-LMS-1, 0.00017 µM	1.09
SK-LMS-1, 0.00051 µM	1.09
SK-LMS-1, 0.00152 µM	1.06
SK-LMS-1, 0.00457 µM	1.08
SK-LMS-1, 0.01372 µM	1.1
SK-LMS-1, 0.04115 µM	1.06
SK-LMS-1, 0.1235 µM	1.08
SK-LMS-1, 0.3704 µM	1.06
SK-LMS-1, 1.111 µM	1.05
SK-LMS-1, 3.333 µM	1.06
SK-LMS-1, 10 µM	0.797
SW684, 0.00017 µM	1.16
SW684, 0.00051 µM	1.15
SW684, 0.00152 µM	1.18
SW684, 0.00457 µM	1.15
SW684, 0.01372 µM	1.17
SW684, 0.04115 µM	1.17
SW684, 0.1235 µM	1.18
SW684, 0.3704 µM	1.2
SW684, 1.111 µM	1.15
SW684, 3.333 µM	1.14
SW684, 10 µM	1.12
SW872, 0.00017 µM	1.01
SW872, 0.00051 µM	1
SW872, 0.00152 µM	0.995
SW872, 0.00457 µM	1.026
SW872, 0.01372 µM	1.01
SW872, 0.04115 µM	1.02
SW872, 0.1235 µM	1.03
SW872, 0.3704 µM	1.02
SW872, 1.111 µM	1.02
SW872, 3.333 µM	0.957
SW872, 10 µM	0.768
SYO-1, 0.00017 µM	0.958
SYO-1, 0.00051 µM	0.969
SYO-1, 0.00152 µM	0.924
SYO-1, 0.00457 µM	0.937
SYO-1, 0.01372 µM	0.952
SYO-1, 0.04115 µM	0.935
SYO-1, 0.1235 µM	0.924
SYO-1, 0.3704 µM	0.888
SYO-1, 1.111 µM	0.928
SYO-1, 3.333 µM	0.983
SYO-1, 10 µM	0.918
VA-ES-BJ, 0.00017 µM	0.986
VA-ES-BJ, 0.00051 µM	0.996
VA-ES-BJ, 0.00152 µM	1.02
VA-ES-BJ, 0.00457 µM	1.04
VA-ES-BJ, 0.01372 µM	1.035
VA-ES-BJ, 0.04115 µM	1.03
VA-ES-BJ, 0.1235 µM	1.03
VA-ES-BJ, 0.3704 µM	1.01
VA-ES-BJ, 1.111 µM	1.04
VA-ES-BJ, 3.333 µM	0.974
VA-ES-BJ, 10 µM	0.828
